{"source": "patent US8623429B2", "about": "“Stabilized anthocyanin compositions” (Omnica GmbH, priority 2007, dated 2014)", "format_in_all_cases": "physicochemical", "key": {"[1]": {"assay": "Example 3: stability of black currant extract anthocyanosides, 4 hours at 37° C., pH 7.0, with/without DHLA, GSH or L-cysteine (HPLC)", "experimental": "(§1) Sample a) 60 mg black currant extract [35% anthocyanosides] (0.037 mmol anthocyanosides expressed as cyanidin-3-O-rutinoside) were added to a 100 ml flask and filled to volume with sodium phosphate buffer (5% [w/w], pH=7.0) and stirred until dissolution was complete. A 1 ml sample was taken immediately, acidified with formic acid to pH=1.0 and analyzed by HPLC for the content of anthocyanosides (Fresh Sample). The remaining solution was kept for 4 hours at 37° C. (water bath) with stirring. Thereafter samples (Blank sample), representing unprotected degradation, were taken and acidified.\nSample b) 20 mg reduced L-glutathione (0.065 mmol) were added to a 100 ml flask with 60 ml sodium phosphate buffer (5% [w/w], pH=7.0) and stirred until dissolution was complete. 60 mg black currant extract [35% anthocyanosides] (0.037 mmol anthocyanosides expressed as cyanidin-3-O-rutinoside) were then added and the flask was filled to volume with sodium phosphate buffer (5% [w/w], pH=7.0) and kept for 4 hours at 37° C. (water bath) with stirring.\nSample c) 20 mg dihydrolipoic acid (0.096 mmol) were added to a 100 ml flask with 60 ml sodium phosphate buffer (5% [w/w], pH=7.0) and stirred until dissolution was completed. 60 mg black currant extract [35% anthocyanosides] (0.037 mmol anthocyanosides expressed as cyanidin-3-O-rutinoside) were added to the flask, filled to volume with sodium phosphate buffer (5% [w/w], pH=7.0) and kept for 4 hours at 37° C. (water bath) with stirring.\nSample d) 20 mg L-cysteine acid (0.165 mmol) were added to a 100 ml flask with 60 ml sodium phosphate buffer (5% [w/w], pH=7.0) and stirred until dissolution was complete. 60 mg black currant extract [35% anthocyanosides] (0.037 mmol anthocyanosides expressed as cyanidin-3-O-rutinoside) were added to the flask, filled to volume with sodium phosphate buffer (5% [w/w], pH=7.0) and kept for 4 hours at 37° C. (water bath) with stirring.\nAfter 4 hours samples were taken, acidified immediately with formic acid to pH=1.0 and analyzed by HPLC for the content of anthocyanosides. Degradation is expressed as decrease in peak area of individual peaks (calculated as % left after 4 hours).\n(§2) Samples were prepared as outlined below in HPLC Analytical Method. Test stability samples were immediately acidified (to block degradation) and injected undiluted following the detailed description provided below.\nHPLC Analytical Method (Materials, Instruments and Methods): […]"}, "[2]": {"assay": "Example 9: stability of bilberry extract anthocyanosides, 4 hours at 37° C., pH 7.0, with/without L-cysteine", "experimental": "Sample a) 60 mg bilberry extract [37% anthocyanosides] (0.048 mmol anthocyanosides expressed as cyanidin-3-O-glucoside) were added to a 100 ml flask with 60 ml sodium phosphate buffer (5% [w/w], pH=7.0), and stirred until dissolution was complete. A 1 ml sample was taken immediately and acidified with formic acid to pH=1.0 and analyzed by HPLC for the content of anthocyanosides (Fresh Sample). The remaining solution was kept for 4 hours at 37° C. (water bath) with stirring. Thereafter another sample (Blank sample), representing unprotected degradation, was taken and acidified.\nSample b) 20 mg L-cysteine […] were added to a 100 ml flask with 60 ml sodium phosphate buffer (5% [w/w], pH=7.0) and stirred until dissolution was complete. 60 mg bilberry extract [37% anthocyanosides] (0.048 mmol expressed as cyanidin-3-O-glucoside) were then added to the flask and stir to fully dissolve, then kept for 4 hours at 37° C. (water bath) with stirring.\nAfter 4 hours, samples were taken and acidified immediately with formic acid to pH=1.0 and analyzed by HPLC for the content of anthocyanosides. Degradation is expressed as decrease in peak area of individual peaks (calculated as % left after 4 hours).\nSamples were prepared as outlined above in the HPLC Analytical Method. Test stability samples were immediately acidified (to block degradation) and injected undiluted following the detailed description provided below."}, "[3]": {"assay": "Example 5: degradation over time of black currant anthocyanosides at 37° C., pH 7.0, with/without GSH (HPLC)", "conditions": "pH 7.0, 37° C.; for %-residual anthocyanosides (% left): 4 hours", "experimental": "as §1, with “flask,” for “flask and”, “anthocyanosides.” for “anthocyanosides (Fresh Sample).”, “kept” for “kept for 4 hours”, “stirring and 1 ml” for “stirring. Thereafter”, “Samples),” for “sample),”, “every 15 minutes. The samples were analyzed for selected anthocyanosides by HPLC.” for “and acidified.”\nSample b) 20 mg reduced L-glutathione (0.065 mmol) were added to a 100 ml flask with 60 ml sodium phosphate buffer (5% [w/w], pH=7.0) and stirred until dissolution was complete. 60 mg black currant extract [35% anthocyanosides] (0.037 mmol anthocyanosides expressed as cyanidin-3-O-rutinoside) were added, the flask was filled to volume with sodium phosphate buffer (5% [w/w], pH=7.0) and kept for at 37° C. (water bath) with stirring. Every 15 minutes 1 ml samples were taken and analyzed for selected anthocyanosides by HPLC.\nas §2"}, "[4]": {"assay": "Example 1: stability of bilberry extract anthocyanosides, 4 hours at 37° C., pH 7.0, with/without DHLA or GSH (HPLC)"}, "[5]": {"conditions": "unprotected, pH 7.0, 37° C., 4 hours"}, "[6]": {"conditions": "20 mg reduced L-glutathione, pH 7.0, 37° C., 4 hours"}, "[7]": {"conditions": "30 mg dihydrolipoic acid, pH 7.0, 37° C., 4 hours"}}, "data": [{"smiles": "OC[C@H]1O[C@@H](Oc2cc3c(O)cc(O)cc3[o+]c2-c2ccc(O)c(O)c2)[C@H](O)[C@@H](O)[C@@H]1O", "note": "[Cn-3O-Glc, Cyanidin 3-o-glucoside]", "values": [{"measurement": "Peak Area, Fresh solution", "setting": "[1]; black currant extract 60 mg/100 ml buffer pH 7.0, fresh sample", "value": 491.1}, {"measurement": "% left, DHLA 20 mg", "setting": "[1]; pH 7.0, 37° C., 4 hours", "value": 51.7, "unit": "%"}, {"measurement": "% left, GSH 20 mg", "setting": "[1]; pH 7.0, 37° C., 4 hours", "value": 64.3, "unit": "%"}, {"measurement": "% left, L-cysteine 20 mg", "setting": "[1]; pH 7.0, 37° C., 4 hours", "value": 38.0, "unit": "%"}, {"measurement": "Peak Area, DHLA 20 mg", "setting": "[1]; pH 7.0, 37° C., 4 hours", "value": 254.1}, {"measurement": "Peak Area, GSH 20 mg", "setting": "[1]; pH 7.0, 37° C., 4 hours", "value": 315.7}, {"measurement": "Peak Area, L-cysteine 20 mg", "setting": "[1]; pH 7.0, 37° C., 4 hours", "value": 186.8}, {"measurement": "% left, Blank", "setting": "[1]; [5]", "value": 31.4, "unit": "%"}, {"measurement": "Peak Area, Blank", "setting": "[1]; [5]", "value": 154.0}, {"measurement": "Peak Area, Fresh solution", "setting": "[2]; bilberry extract 60 mg in buffer pH 7.0, fresh sample", "value": 987.9}, {"measurement": "% left, L-cysteine 20 mg", "setting": "[2]; pH 7.0, 37° C., 4 hours", "value": 80.7, "unit": "%"}, {"measurement": "Peak Area, L-cysteine 20 mg", "setting": "[2]; pH 7.0, 37° C., 4 hours", "value": 797.5}, {"measurement": "% left, Blank", "setting": "[2]; [5]", "value": 41.5, "unit": "%"}, {"measurement": "Peak Area, Blank", "setting": "[2]; [5]", "value": 410.3}, {"measurement": "Peak Area", "setting": "[3]; Blank sample, 0:00 h", "value": 491.1}, {"measurement": "Peak Area", "setting": "[3]; Blank sample, 0:15 h", "value": 368.9}, {"measurement": "Peak Area", "setting": "[3]; Blank sample, 0:30 h", "value": 361.9}, {"measurement": "Peak Area", "setting": "[3]; Blank sample, 0:45 h", "value": 321.0}, {"measurement": "Peak Area", "setting": "[3]; Blank sample, 1:00 h", "value": 312.0}, {"measurement": "Peak Area", "setting": "[3]; Blank sample, 1:30 h", "value": 293.4}, {"measurement": "Peak Area", "setting": "[3]; Blank sample, 1:45 h", "value": 283.8}, {"measurement": "Peak Area", "setting": "[3]; Blank sample, 2:00 h", "value": 256.7}, {"measurement": "Peak Area", "setting": "[3]; Blank sample, 2:15 h", "value": 250.3}, {"measurement": "Peak Area", "setting": "[3]; Blank sample, 2:30 h", "value": 243.9}, {"measurement": "Peak Area", "setting": "[3]; Blank sample, 2:45 h", "value": 226.8}, {"measurement": "Peak Area", "setting": "[3]; Blank sample, 3:00 h", "value": 213.7}, {"measurement": "Peak Area", "setting": "[3]; Blank sample, 3:15 h", "value": 204.9}, {"measurement": "Peak Area", "setting": "[3]; Blank sample, 3:30 h", "value": 180.1}, {"measurement": "Peak Area", "setting": "[3]; Blank sample, 3:45 h", "value": 181.6}, {"measurement": "Peak Area", "setting": "[3]; Blank sample, 4:00 h", "value": 154.0}, {"measurement": "%-residual anthocyanosides (% left)", "setting": "[3]; Blank", "value": 31, "unit": "%"}, {"measurement": "Peak Area", "setting": "[3]; GSH protected sample (20 mg), 0:00 h", "value": 480.6}, {"measurement": "Peak Area", "setting": "[3]; GSH protected sample (20 mg), 0:15 h", "value": 426.1}, {"measurement": "Peak Area", "setting": "[3]; GSH protected sample (20 mg), 0:45 h", "value": 418.6}, {"measurement": "Peak Area", "setting": "[3]; GSH protected sample (20 mg), 1:00 h", "value": 423.8}, {"measurement": "Peak Area", "setting": "[3]; GSH protected sample (20 mg), 1:15 h", "value": 415.3}, {"measurement": "Peak Area", "setting": "[3]; GSH protected sample (20 mg), 1:45 h", "value": 376.4}, {"measurement": "Peak Area", "setting": "[3]; GSH protected sample (20 mg), 2:00 h", "value": 387.6}, {"measurement": "Peak Area", "setting": "[3]; GSH protected sample (20 mg), 2:15 h", "value": 356.5}, {"measurement": "Peak Area", "setting": "[3]; GSH protected sample (20 mg), 2:45 h", "value": 337.5}, {"measurement": "Peak Area", "setting": "[3]; GSH protected sample (20 mg), 3:00 h", "value": 349.5}, {"measurement": "Peak Area", "setting": "[3]; GSH protected sample (20 mg), 3:15 h", "value": 325.6}, {"measurement": "Peak Area", "setting": "[3]; GSH protected sample (20 mg), 3:45 h", "value": 312.6}, {"measurement": "Peak Area", "setting": "[3]; GSH protected sample (20 mg), 4:00 h", "value": 315.7}, {"measurement": "Peak Area", "setting": "[3]; GSH protected sample (20 mg), 4:15 h", "value": 300.3}, {"measurement": "%-residual anthocyanosides (% left)", "setting": "[3]; GSH-protected", "value": 66, "unit": "%"}, {"measurement": "% left, GSH (4 hours)", "setting": "[4]; [6]", "value": 80.7, "unit": "%"}, {"measurement": "Peak Area, GSH (4 hours)", "setting": "[4]; [6]", "value": 797.5}, {"measurement": "% left, DHLA (4 hours)", "setting": "[4]; [7]", "value": 67.9, "unit": "%"}, {"measurement": "Peak Area, DHLA (4 hours)", "setting": "[4]; [7]", "value": 671.1}, {"measurement": "Peak Area, Fresh (0 hours)", "setting": "[4]; bilberry extract 60 mg/100 ml sodium phosphate buffer pH 7.0, fresh sample", "value": 987.9}, {"measurement": "% left, Blank (4 hours)", "setting": "[4]; [5]", "value": 41.5, "unit": "%"}, {"measurement": "Peak Area, Blank (4 hours)", "setting": "[4]; [5]", "value": 410.3}]}]}
